From the supplement of paper PMC10307832

Compound: NC(=O)[C@@H](CCC(F)(F)F)N(Cc1ccc(-c2ncon2)cc1F)S(=O)(=O)c1ccc(Cl)cc1 [Avagacestat] + Cc1cc(Nc2cc(N3CCN(C)CC3)nc(Sc3ccc(NC(=O)C4CC4)cc3)n2)n[nH]1 [Tozasertib] (partner 0.1 µM)
Assay: relative viability (nuclei count vs DMSO), 5 days (fraction); higher = more cells survive
Outline: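 The day after seeding in 1536-well plates, lung cancer cell lines were treated by pin tool with a single drug, or with a fixed anchor-drug dose together with five library-drug doses (not always all listed) in √10 steps. After 5 days, a combined fix-and-stain solution (final 0.05% Triton X-100, 1% formaldehyde, 1 ug/ml Hoechst) was added. Nuclei counted on 4× images gave relative viability as treated counts over vehicle counts, reported as the median of duplicate plates.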

Cell Line | relative viability (first compound 0.08 µM) | relative viability (first compound 0.253 µM) | relative viability (first compound 0.8 µM) | relative viability (first compound 2.53 µM) | relative viability (first compound 8 µM)
201T | 0.967 | 1.06 | 0.922 | 0.843 | 0.9
A-427 | 0.203 | 0.185 | 0.206 | 0.198 | 0.198
ABC-1 | 0.164 | 0.16 | 0.178 | 0.187 | 0.179
BEN | 0.512 | 0.504 | 0.526 | 0.449 | 0.49
CAL-12T | 0.368 | 0.358 | 0.385 | 0.24 | 0.278
COR-L23 | 0.363 | 0.152 | 0.171 | 0.173 | 0.149
COR-L 105 | 0.379 | 0.458 | 0.41 | 0.334 | 0.359
ChaGo-K-1 | 0.198 | 0.238 | 0.22 | 0.212 | 0.226
EKVX | 0.401 | 0.373 | 0.382 | 0.34 | 0.287
EMC-BAC-2 | 0.278 | 0.299 | 0.31 | 0.255 | 0.322
EPLC-272H | 0.186 | 0.48 | 0.152 | 0.249 | 0.203
H3255 | 0.529 | 0.55 | 0.825 | 0.556 | 0.693
HARA | 0.0944 | 0.0986 | 0.0937 | 0.0995 | 0.145
HCC-15 | 0.404 | 0.461 | 0.434 | 0.337 | 0.167
HCC-44 | 1.03 | 1.27 | 0.976 | 0.146 | 0.755
HCC-78 | 0.404 | 0.473 | 0.208 | 0.396 | 0.377
HCC-366 | 0.0969 | 0.172 | 0.0909 | 0.0683 | 0.0694
HCC-827 | 0.452 | 0.434 | 0.506 | 0.381 | 0.462
HOP-62 | 0.357 | 0.353 | 0.373 | 0.363 | 0.335
LC-2-ad | 0.453 | 0.384 | 0.427 | 0.197 | 0.367
LCLC-97TM1 | 0.221 | 0.206 | 0.208 | 0.183 | 0.181
LCLC-103H | 0.58 | 0.55 | 0.512 | 0.391 | 0.449
LK-2 | 0.188 | 0.147 | 0.185 | 0.183 | 0.172
LOU-NH91 | 0.621 | 0.63 | 0.648 | 0.609 | 0.624

Cell Line | relative viability (first compound 0.08 µM) | relative viability (first compound 0.253 µM) | relative viability (first compound 0.8 µM) | relative viability (first compound 2.53 µM) | relative viability (first compound 8 µM)
LU99A | 0.246 | 0.238 | 0.244 | 0.235 | 0.273
LXF-289 | 0.19 | 0.119 | 0.211 | 0.131 | 0.212
NCI-H23 | 0.378 | 0.535 | 0.406 | 0.362 | 0.359
NCI-H322M | 0.491 | 0.51 | 0.5 | 0.454 | 0.474
NCI-H358 | 0.106 | 0.0996 | 0.102 | 0.101 | 0.107
NCI-H441 | 0.968 | 0.715 | 0.529 | 0.683 | 0.483
NCI-H460 | 0.616 | 0.651 | 0.492 | 0.156 | 0.155
NCI-H520 | 0.417 | 0.48 | 0.42 | 0.3 | 0.36
NCI-H522 | 0.559 | 0.593 | 0.579 | 0.517 | 0.479
NCI-H596 | 0.979 | 0.784 | 0.774 | 0.754 | 0.827
NCI-H647 |  | 0.319 | 0.199 | 0.263 | 0.0556
NCI-H650 | 0.872 | 0.973 | 0.761 | 0.65 | 0.702
NCI-H661 | 0.356 | 0.381 | 0.361 | 0.363 | 0.37
NCI-H727 | 0.614 | 0.686 | 0.592 | 0.489 | 0.489
NCI-H838 | 0.277 | 0.286 | 0.269 | 0.276 | 0.269
NCI-H1355 | 0.523 | 0.534 | 0.593 | 0.454 | 0.392
NCI-H1395 | 0.826 | 0.758 | 0.752 | 0.64 | 0.715
NCI-H1437 | 0.416 | 0.457 | 0.41 | 0.377 | 0.307
NCI-H1648 | 0.374 | 0.464 | 0.371 | 0.296 | 0.298
NCI-H1650 | 0.47 | 0.378 | 0.468 | 0.393 | 0.333
NCI-H1651 | 0.955 | 0.862 | 0.719 | 0.609 | 0.585
NCI-H1666 | 0.726 | 0.602 | 0.706 | 0.582 | 0.586
NCI-H1734 | 0.235 | 0.301 | 0.264 | 0.236 | 0.24
NCI-H1755 | 0.641 | 0.562 | 0.575 | 0.624 | 0.54

Cell Line | relative viability (first compound 0.08 µM) | relative viability (first compound 0.253 µM) | relative viability (first compound 0.8 µM) | relative viability (first compound 2.53 µM) | relative viability (first compound 8 µM)
NCI-H1793 | 0.307 | 0.329 | 0.655 | 0.239 | 0.3
NCI-H1915 | 0.51 | 0.48 | 0.464 | 0.393 | 0.398
NCI-H1944 | 0.256 | 0.314 | 0.232 | 0.222 | 0.257
NCI-H1975 | 1.01 | 0.945 | 0.928 | 0.603 | 0.367
NCI-H1993 | 0.604 | 0.594 | 0.529 | 0.541 | 0.539
NCI-H2009 | 0.879 | 0.836 | 0.812 | 0.61 | 0.532
NCI-H2023 | 0.513 | 0.479 | 0.396 | 0.289 | 0.254
NCI-H2085 | 0.849 | 0.894 | 0.842 | 0.803 | 0.829
NCI-H2087 | 0.218 | 0.286 | 0.277 | 0.248 | 0.237
NCI-H2126 | 0.81 | 0.859 | 0.906 | 0.334 | 0.778
NCI-H2170 | 0.807 | 0.782 | 0.812 | 0.72 | 0.646
NCI-H2228 | 0.206 | 0.255 | 0.206 | 0.224 | 0.242
NCI-H2342 | 0.593 | 0.48 | 0.57 | 0.493 | 0.527
NCI-H2347 | 0.452 | 0.52 | 0.526 | 0.519 | 0.503
NCI-H2405 | 0.718 | 0.751 | 0.747 | 0.714 | 0.661
NCI-H3122 | 0.446 | 0.517 | 0.419 |  | 0.384
PC-3 [JPC-3] | 1.01 | 0.99 | 1.08 | 0.943 | 0.826
PC-14 | 0.733 | 0.859 | 0.925 | 0.692 | 0.633
RERF-LC-KJ | 0.5 | 0.471 | 0.466 | 0.418 | 0.379
SK-LU-1 | 0.317 | 0.318 | 0.329 | 0.269 | 0.31
SK-MES-1 | 1.13 | 1.23 | 1.07 | 0.874 | 0.783
SW 1573 | 0.169 | 0.195 | 0.173 | 0.217 | 0.176
UMC-11 | 0.206 | 0.225 | 0.201 | 0.195 | 0.202
